Laboratory results as given in patent US11945973B2, “Ionic liquid-based coating and method of making articles coated with the same” (THE HONG KONG UNIVERSITY OF SCIENCE AND TECHNOLOGY, priority 2019, dated 2024).

Assays:
[1] = system: A549 lung epithelial cells
Method: A549 lung epithelial cells were grown in 25 cm^2 flasks with Dulbecco's modified Eagle's medium (DMEM) supplemented with 10% fetal bovine serum, 100 U/ml streptomycin, and 50 U/ml penicillin at 37° C. in a humidified atmosphere with 5% CO2. A subculture of confluent monolayers was carried out using 0.05% trypsin, 0.53 mmol/l ethylenediaminetetraacetic acid in calcium and magnesium-free Hanks balanced salt solution (HBSS). […] For the 3-(4,5-dimethylthiazol-2-yl)-2,5-diphenyltetrazolium bromide (MTT) assay, cells were plated in 96-well microplates at 2×10^5 cell/well for 6 hours, then the media were gently changed to remove non-adherent cells. The plates were used for assays after 24 hours. […] The media were replaced with 100 μl of dimethyl sulfoxide for 20 minutes, and the absorbances at 595 nm were determined using a microplate reader. […] The inhibition rate, I, is given by [formula] where C is the absorbance of the control group containing the cell solution and MTT, which indicates the number of maximum living cells, S is the absorbance of the sample group containing the cell solution, ionic liquids and MTT, which indicates the number of living cells in the ionic liquids, and B is the absorbance of the blank group containing only pure culture media and MTT, which is set reduce interference by the natural environment.

E. coli = experiment: Inhibition zone on agar plates; assay type: cell-based; conditions: liquid applied to agar plate
Method: A bacterial suspension (0.1 ml) was spread onto tryptone soya agar plates. HEPA filters with ionic liquid coatings were cut into small pieces. They were then placed on the center of plates spread by bacteria. The plates were incubated at room temperature for 48 hours.

Row | Structure (SMILES) | cytotoxicity (inhibition rate) for A549 lung epithelial cells [1] | inhibition zone for E. coli (E. coli)
1 | CCn1cc[n+](C)c1.F[B-](F)(F)F [EMIM-BF4, 1-ethyl-3-methylimidazolium tetrafluoroborate] | lowest cytotoxicity | obvious inhibition
2 | CCO [ethanol, reference compound] |  | no clear inhibition zones
